Experiments:
[1] = system: beclin-1; assay: Beclin-1 expression (Western blot and ELISA); assay type: cell-based, human; conditions: after vosaroxin treatment at IC20; U87MG, U251, T98G
Protocol: Cells grown in 90 mm diameter Petri dishes were treated and at various timepoints were washed with cold phosphate-buffered saline (PBS) and immediately lysed with 1 mL radioimmunoprecipitation assay (RIPA) buffer containing protease and phosphatase inhibitor cocktail. Total lysates were electrophoresed in SDS-PAGE (7%), and separated proteins transferred to nitrocellulose and probed with the appropriate antibodies using the conditions recommended by the suppliers. Protein levels in total extracts were normalized to actin. After appropriate treatments, tumor cell cultures and tissues were harvested for analysis of cytokine expression. Cell pellets were washed with PBS and lysed with RIPA buffer. Cell lysates and conditioned media were assayed by ELISA to measure (i) active human caspase-3 (CBA045, Merck Chemicals Ltd., Nottingham, UK), (ii) beclin-1 (E98557Hu, USCN Life Sciences, Houston, TX, USA), and (iii) DNA damage (EpiQuik in situ DNA Damage Assay Kit, Epigentek, Farmingdale, NY, USA).

[2] = system: SW1783 glioma cell line; assay: Inhibition of proliferation (cell viability); assay type: cell-based; conditions: Homo sapiens
Protocol: (§1) Cells were seeded at a density of 2 × 10^4 cells/mL in 24-well plates. Cells were […] to attach and grow in 5% fetal bovine serum in DMEM for 24 hours. Cells were treated with different doses of radiation or temozolomide and then maintained in the appropriate culture conditions. At the conclusion of the treatment period, cells were trypsinized and resuspended in 1.0 mL of saline; viable cells were counted using the NucleoCounter^TM NC-100 (Chemotec, […], Denmark). All experiments were conducted in triplicate. IC50 values were calculated using GraFit (Erithacus Software Limited, Staines, UK).

[3] = system: SNB19 glioma cell line; assay: Inhibition of proliferation (cell viability); assay type: cell-based; conditions: Homo sapiens, SNB-19
Protocol: as §1

[4] = system: U87MG glioma cell line; assay: Inhibition of proliferation (cell viability); assay type: cell-based; conditions: Homo sapiens, U-87 MG
Protocol: as §1

[5] = system: U118 glioma cell line; assay: Inhibition of proliferation (cell viability); assay type: cell-based; conditions: Homo sapiens
Protocol: as §1

[6] = system: D54 glioma cell line; assay: Inhibition of proliferation (cell viability); assay type: cell-based; conditions: Homo sapiens
Protocol: as §1

[7] = system: U251 glioma cell line; assay: Inhibition of proliferation (cell viability); assay type: cell-based; conditions: Homo sapiens, U-251
Protocol: as §1

[8] = system: A172 glioma cell line; assay: Inhibition of proliferation (cell viability); assay type: cell-based; conditions: Homo sapiens, A 172
Protocol: as §1

[9] = system: LN229 glioma cell line; assay: Inhibition of proliferation (cell viability); assay type: cell-based; conditions: Homo sapiens, LN-229
Protocol: as §1

[10] = system: U373 glioma cell line; assay: Inhibition of proliferation (cell viability); assay type: cell-based; conditions: Homo sapiens, U373 MG
Protocol: as §1

[11] = system: SF268 glioma cell line; assay: Inhibition of proliferation (cell viability); assay type: cell-based; conditions: Homo sapiens, SF-268
Protocol: as §1

[12] = system: LN18 glioma cell line; assay: Inhibition of proliferation (cell viability); assay type: cell-based; conditions: Homo sapiens, LN-18
Protocol: as §1

[13] = system: T98G glioma cell line; assay: Inhibition of proliferation (cell viability); assay type: cell-based; conditions: Homo sapiens
Protocol: as §1

[14] = system: U138 glioma cell line; assay: Inhibition of proliferation (cell viability); assay type: cell-based; conditions: Homo sapiens
Protocol: as §1

[15] = system: luciferase-transfected U251 cells; assay: Orthotopic intra-brain model (DFS, OS)

CN[C@H]1CN(c2ccc3c(=O)c(C(=O)O)cn(-c4nccs4)c3n2)C[C@@H]1OC [vosaroxin]
RT-induced levels of beclin-1 [1]: significantly reduced | IC50 [2]: 260 ± 9.8 nM | IC50 [3]: 35.5 ± 7 nM | IC20 [4]: 65 nM | IC50 [4]: 141 ± 84.7 nM | IC50 [5]: 88.5 ± 16.7 nM | IC50 [6]: 190 ± 25.4 nM | IC20 [7]: 15 nM | IC50 [7]: 18.6 ± 2.4 nM | IC50 [8]: 125 ± 89.4 nM | IC50 [9]: 12.8 ± 2.3 nM | IC50 [10]: 78.4 ± 9.7 nM | IC50 [11]: 50.3 ± 12 nM | IC50 [12]: 90 ± 12.5 nM | IC20 [13]: 45 nM | IC50 [13]: 64.5 ± 11 nM | IC50 [14]: 65.8 ± 14.6 nM | Disease-free Survival HR (95% CI) ([15]; VSR vs TMZ + RT): 1.2 (0.4–3.2) | Overall Survival HR (95% CI) ([15]; VSR vs TMZ + RT): 1.5 (0.5–3.0) | Disease-free Survival HR (95% CI) ([15]; VSR vs VSR + RT): 2.4 (1.1–8.8) | Overall Survival HR (95% CI) ([15]; VSR vs VSR + RT): 4.5 (2.2–22.5) | mean time of recurrence (DFS) ± SE ([15]; orthotopic U251-luciferase, treated for 35 days starting 5 days after cell injection): 70.5 ± 7.3 days

Reference: paper PMC5444710, “Enhancement of radiosensitivity by the novel anticancer quinolone derivative vosaroxin in preclinical glioblastoma models” (Oncotarget, 2017)
